Reference: US10717788B2, “Cyclodextrin functionalized nanoparticles for quenching bacterial communications” (University of South Carolina, priority 2014, dated 2020)

Key:
Vibrio fischeri [1] = test: Growth studies: luminescence of Vibrio fischeri in vitro; assay type: cell-based
Vibrio fischeri [2] = test: Quantification of gene expression during luminescence; assay type: cell-based
[3] = NMR diffusion experiments, binding affinity of cyclodextrin for N-octanoyl-homoserine lactone; settings: based on dissociation constants calculated from the diffusion data
Description: To confirm that cyclodextrin was the active quenching agent in the model system, NMR diffusion experiments were performed.

Which luminescence (Vibrio fischeri [1]) does the source give for `OC[C@H]1O[C@@H]2O[C@H]3[C@H](O)[C@@H](O)[C@@H](O[C@H]4[C@H](O)[C@@H](O)[C@@H](O[C@H]5[C@H](O)[C@@H](O)[C@@H](O[C@H]6[C@H](O)[C@@H](O)[C@@H](O[C@H]7[C@H](O)[C@@H](O)[C@@H](O[C@H]8[C@H](O)[C@@H](O)[C@@H](O[C@H]1[C@H](O)[C@H]2O)O[C@@H]8CO)O[C@@H]7CO)O[C@@H]6CO)O[C@@H]5CO)O[C@@H]4CO)O[C@@H]3CO` [cyclodextrin, β-Cyclodextrin] here?
Its luminescence is “reduce luminescence”.

What about the “production of autoinducers and luciferase (gene expression)” value (Vibrio fischeri [2]) of the same compound?
Its value is “decrease in the production of autoinducers and luciferase”.

What about the “binding of N-octanoyl-homoserine lactone (complex formation)” value [3] of the same compound?
The value was “able to bind cyclodextrin and form a complex”.
